Values of other authors in patent US20060035317A1, “Effect of treatment with 4,5-dihydroxy-2-cyclopenten-1-one (dhcp) on gene expression and quorum-sensing in bacteria” (priority 2002, published 2006).
Like-named read-outs stand apart in the source and are kept apart here.

System: E. coli (gene expression)
Settings: Wang et al., 2001, cited from earlier work

Compound: c1ccc2[nH]ccc2c1 [indole]
- Induction of gene by indole (gene cysK): induces
- Induction of gene by indole (gene gabT): not
